Results taken from ChEMBL document CHEMBL1201862, “PubChem BioAssay data set” (2004).
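Results reflect a 48-hour exposure of cells in 96-well plates to compound at five concentrations. The concentration for 50% growth inhibition is given as GI50.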 Activity calls are given as the source filed them. Cut-off read from the data, not from the text of the source: active = GI50 up to about 1.1 µM and inactive = higher.

Legend:
Assay in all cases: inhibition of tumour cell growth, NCI panel, 48 h
[1] = system: SF-295
[2] = system: SK-OV-3
[3] = system: M19-MEL
[4] = system: COLO 205
[5] = system: EKVX
[6] = system: HOP-62
[7] = system: RXF 631
[8] = system: A498
[9] = system: NCI-H23
[10] = system: RPMI-8226
[11] = system: HT-29
[12] = system: K562
[13] = system: NCI-H522
[14] = system: HL-60
[15] = system: HCC 2998
[16] = system: A549
[17] = system: SK-MEL-2
[18] = system: OVCAR-8
[19] = system: Malme-3M
[20] = system: KM12
[21] = system: MOLT-4
[22] = system: OVCAR-3
[23] = system: SF-539
[24] = system: HOP-18
[25] = system: UO-31
[26] = system: LOX IMVI
[27] = system: 786-0
[28] = system: OVCAR-5
[29] = system: DMS-273
[30] = system: HOP-92
[31] = system: NCI-H460
[32] = system: SF-268
[33] = system: CCRF-CEM
[34] = system: KM-20L2
[35] = system: UACC-257
[36] = system: TK-10
[37] = system: U-251
[38] = system: LXFL 529
[39] = system: SK-MEL-28
[40] = system: HCT-116
[41] = system: SW-620
[42] = system: SNB-75
[43] = system: ACHN
[44] = system: DLD-1
[45] = system: RXF 393
[46] = system: DMS-114
[47] = system: XF498
[48] = system: IGROV-1
[49] = system: SNB-78

Measured: GI50

O=C1/C(=C/c2ccccc2Cl)COc2ccccc21
inactive: [1] 19.1 µM | [2] 32.6 µM | [3] 18.6 µM | [4] 21.7 µM | [5] 16 µM | [6] 16.9 µM | [7] 19.2 µM | [8] 16.6 µM | [9] 19.1 µM | [10] 3.53 µM | [11] 19 µM | [12] 3.93 µM | [13] 16.6 µM | [14] 17.6 µM | [15] 20.9 µM | [16] 22.6 µM | [17] 15.5 µM | [18] 17.2 µM | [19] 15.5 µM | [20] 10.8 µM | [21] 5.79 µM | [22] 18.2 µM | [23] 17.3 µM | [24] 11.8 µM | [25] 15.1 µM | [26] 15.3 µM | [27] 15.2 µM | [28] 17.8 µM | [29] 15 µM | [30] 15.1 µM | [31] 20.5 µM | [32] 17.5 µM | [33] 4.73 µM | [34] 18.5 µM | [35] 15.1 µM | [36] 13.8 µM | [37] 13.7 µM | [38] 17.5 µM | [39] 16.3 µM | [40] 4.75 µM | [41] 5.73 µM | [42] 18 µM | [43] 19.1 µM | [44] 15.3 µM | [45] 15.5 µM | [46] 18 µM | [47] 15.6 µM | [48] 18.1 µM | [49] 19.3 µM
